Laboratory results: patent US20100113613A1, “CYCLOHEXANE POLYALCOHOL FORMULATION FOR TREATMENT OF DISORDERS OF PROTEIN AGGREGATION” (WARATAH PHARMACEUTICALS, priority 2006, published 2010)
Marks after values point to notes of the source that are not given here.

Legend:
plaque burden [1] = test: TgCRND8 mice therapeutic dosing (5-6 months): plaque burden; format: in vivo; conditions: TgCRND8 mice dosed 5-6 months age, 28 days, 10 mg/ml in drinking water
TgCRND8 mice = TgCRND8 mice therapeutic dosing (5-6 months): synaptic density; format: in vivo; conditions: therapeutic dosing regimen 5-6 months, p<0.001
Aβ40 = biological target: T1, Aβ40 (Homo sapiens, UniProt P05067); test: TgCRND8 mice 2 month ad libitum treatment from 5 months: brain and plasma Aβ40 ELISA; format: in vivo; conditions: 2 month treatment ad libitum 10 mg/ml from 5 months of age
T1 construct: associated with reduced levels of insoluble Aβ40 and Aβ42 in the brain; from tissue; host or cells: brain homogenate (and plasma) of TgCRND8 transgenic mice
T1 sequence (P05067 672-711): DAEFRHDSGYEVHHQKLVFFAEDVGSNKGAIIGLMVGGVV

Aβ42 [2] = biological target: T2, Aβ42 (Homo sapiens, UniProt P05067); test: TgCRND8 mice 2 month ad libitum treatment from 5 months: brain and plasma Aβ42 ELISA; format: in vivo; conditions: 2 month treatment ad libitum 10 mg/ml from 5 months of age
T2 construct: Levels of Aβ42 in brain homogenates were assessed by ELISA; from tissue; host or cells: brain homogenate (and plasma) of TgCRND8 transgenic mice
T2 sequence (P05067 672-713): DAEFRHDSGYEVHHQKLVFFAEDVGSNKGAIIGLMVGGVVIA

[3] = Orally administered tritiated-inositol uptake in plasma and brain (FIG. 16); format: in vivo
Description: FIG. 16. Bioavailability of scyllo- (solid line) and myo-inositol (dashed line) in plasma and brain, determined using orally administered tritiated-inositol uptake studies. […] Brain levels also rose rapidly and were maximal at 8 h and 32 h, respectively.

[4] = Brain and CSF levels of inositols after one month ad libitum dosing (GC/MS), Example 2; format: in vivo, TgCRND8 mice; conditions: mouse, in vivo
Description: Study drugs were administered either at 30 mg/kg by oral gavage, or ad libitum by dissolution in drinking water. For administration in drinking water, study drugs were dissolved at 10 mg/ml. The average amount of water taken from the bottle was 3 ml daily per animal. The average mouse weight was 33 g. […] Quantification of scyllo-cyclohexanehexyl and myo-inositol. Scyllo-cyclohexanehexyl and myo-cyclohexanehexyl levels in the brain and CSF were analyzed using gas chromatography/mass spectrometry. D-chiro-inositol was used as an internal control, as it is not present in these biological samples. Derivatization: To increase the volatility and thermal stability of these compounds and to allow for proper peak separation, these samples need to first be derivatized. The derivatization was adapted from a method presented previously (Shetty, H U, et al, 1995, Anal. Biochem. 224:279-85), where the hydroxyl groups of the cyclohexanehexyl were replaced with acetyl groups. […] Similarly, a 5-15 μl sample of CSF was mixed with 1 ml of methanol and allowed to stand at room temperature for 5 minutes. The resulting suspension was centrifuged (5 min, 5000×g) and the supernatant transferred to a glass tube (Teflon-lined cap). […] These samples were then evaporated to complete dryness (Speedvac; 60° C.). […] This mixture was flushed with dry nitrogen, securely capped and the tubes heated (80° C.; 30 min). Following derivatization, samples were cooled (RT) and the unreacted acetylating reagent evaporated using a steady stream of nitrogen gas. The derivatized products were re-dissolved (4 ml; hexane-ethyl acetate (80:20, v/v)) and washed with 1 ml of 5% sodium hydrogencarbonate solution. […] The residue was reconstituted in 100 μl; ethyl acetate. 1 μL of this was injected into the GC/MS system. A similar procedure was followed using stock concentrations of scyllo- and myo-cyclohexanehexols, which were then used to generate concentration curves (in this case the internal standard was derivatized separately and then added). GC/MS was performed using a Perkin Elmer TurboMass Autosystem XL, with a quadrupole mass spectrometer and electron ionization. Gas chromatography was performed using a 30 m×0.25 mm×0.25 μm ZB 5 (5% diphenyl/95% dimethylpolysiloxane) column, using the carrier gas Helium (1 ml/min). Samples were injected with the split set to 50 at 1 min and 0 at 5 min, the injector temperature was set at 300° C. and an initial oven temperature of 80° C. After a hold of 1 min, the temperature was ramped at 45° C./min to 187° C. and held there for 15 min. […] Sample peaks were analyzed using selected-ion monitoring, using m/z 168 for determining cyclohexanehexyl levels in the brain and CSF and m/z 373 for determining cyclohexanehexyl levels in plasma, as monitoring the larger ion reduced noise. […]

plaque burden [5] = test: TgCRND8 effective dose range (0.3-3.3 mg/kg/day, 3 to 4 months): plaque burden; format: in vivo; conditions: TgCRND8 mice
Description: The highest possible dose level of scyllo-cyclohexanehexyl compound was administered in a CRND8 mouse model. […]8 mice were dosed for 28 days from 3 to 4 months of age, i.e. a time when the disease phenotype would be newly established. This study design was selected to enhance the efficiency of the study (dose earlier) and maximise the information obtained (dose at a time when changes are of sufficient magnitude to detect a treatment effect). […] Cognitive function and plaque burden were assessed. • Improvement of cognitive function: Animals were assessed using the Morris Water Maze at 4 months (FIG. 11). […] This path length was similar to that observed in previous experiments in mice dosed with the compound in drinking water ad libitum. […] Thus a clear dose response was observed.

Aβ42 [6] = biological target: T2, Aβ42; test: TgCRND8 dose response, dosed 5-6 months once daily: Aβ42 in brain homogenates by ELISA; format: in vivo; conditions: CRND8 mice 5-6 months, oral
Description: Dose response was further examined in animals dosed from 5-6 months of age. Disease is more advanced at this later time point, so there may be greater clinical relevance. The dose levels investigated were 5, 10 and 30 mg/kg or vehicle, once daily. Accumulation of Aβ42 was assessed. • Reduction in amyloid accumulation in the brain: Levels of Aβ42 in brain homogenates were assessed by ELISA.

long term potentiation = test: Long term potentiation experiments with amyloid oligomer; conditions: amyloid oligomer concentration 1-2 nM
Description: More complex systems provide support for 5 μM (0.9 μg/mL) as an effective local concentration of the scyllo-cyclohexanehexyl. […] The effectiveness of this concentration was confirmed in acute cognitive dysfunction study in rats.

[7] = system: rats infused intracerebroventricularly; test: Cognitive dysfunction in rats infused intracerebroventricularly with Aβ oligomers; format: in vivo, rat; conditions: rats infused icv with oligomers
Description: More complex systems provide support for 5 μM (0.9 μg/mL) as an effective local concentration of the scyllo-cyclohexanehexyl. […] The effectiveness of this concentration was confirmed in acute cognitive dysfunction study in rats. In the clinic, effective local concentrations of a scyllo-cyclohexanehexyl will need to be achieved following oral dosing. Three studies have examined the effective dose range of a scyllo-cyclohexanehexyl following oral dosing. […] In rats infused intracerebroventricularly (icy) with All oligomers, approximately 30 mg/kg/day (the lowest dose administered orally) provided effective alleviation of cognitive dysfunction. Therefore, considering 2 species, different animal ages and different endpoints, a dose level ranging between 3-30 mg/kg/day has consistently shown efficacy.

Compound: OC1C(O)C(O)C(O)C(O)C1O (stereo not drawn) [AZD-103, scyllo-inositol]
- Mean Plaque Size (plaque burden [1]): 336 ± 6* μm^2
- Total Plaque Area (plaque burden [1]): 420027 ± 14986* μm^2
- synaptic density (TgCRND8 mice): increased synaptic density
- Plasma Aβ levels Aβ40 (Aβ40): 4507 ± 207 pg/mL
- Plasma Aβ levels Aβ42 (Aβ42 [2]): 3035 ± 236 pg/mL
- time of maximal brain levels [3]: 32 h
- time of peak plasma levels post administration [3]: 12 h

Compound: scyllo-inositol [AZD-103]
- increase of scyllo-cyclohexanehexyl level in CSF vs untreated [4]: 10 fold
- increase of scyllo-cyclohexanehexyl level in brain vs untreated [4]: 7 fold
- plaque parameters (plaque count and brain plaque area) (plaque burden [5]; 0.3 mg/kg/day, 28 days from 3 to 4 months): indistinguishable from untreated controls
- plaque parameters (plaque count and brain plaque area) (plaque burden [5]; 1 mg/kg/day, plaque count p=0.02, plaque area p=0.011): significantly reduced
- plaque parameters (plaque count and brain plaque area) (plaque burden [5]; 3.3 mg/kg/day, plaque count p<0.0001, plaque area p<0.001): greatest reduction in plaque burden
- dose showing maximum effectiveness at reducing plaques (Aβ42 [6]): 30 mg/kg/day
- lowest maximally-effective dose level (long term potentiation): 5 µM
- dose providing effective alleviation of cognitive dysfunction (lowest dose administered orally) [7]: approximately 30 mg/kg/day
